Source: patent publication US8399487B2, “Pyrazole compounds and uses thereof” (Dart NeuroScience (Cayman) Ltd., priority 2006, dated 2013)
Entries after “also recorded” stand apart in the source; their conditions may differ.

Tested on: contextual memory in C57BL/6 male mice
Assay: Contextual Memory Assay: Fear Conditioning
Format: in vivo
Details: I.P. 0.01 mg/kg, injected 20 minutes before training, 2 training trials, tested 24 hours after training (FIG. 1)
From the text: The ability of a compound to modulate cognitive behavior can be evaluated using the following assay to measure memory after contextual fear conditioning.
Contextual Memory Assay: Fear Conditioning
Contextual memory is a form of Pavlovian fear conditioning in which a naïve mouse is placed into a novel chamber (context) containing distinct visual, olfactory and tactile cues. After a couple of minutes of acclimation, the mouse receives a brief, mild electric shock to its feet. From this negative experience, the mouse will remember for months that that chamber is dangerous. When placed back into the same context at some later time after training, the mouse's natural response to danger is to “freeze,” sitting stone still for many seconds. This is similar to what happens to humans when they experience fear. The percent of time during an observation period that the mouse spends frozen represents a quantitative measure (memory score) of its memory of the context. […]
To assess contextual memory, a modified contextual fear conditioning task originally developed for evaluation of memory in CREB knock-out mice was used (Bourtchouladze, R., et. al., Cell, 1994, 79, 59-68). […] 24 hours after training, the mouse was placed into the same training chamber and contextual memory was assessed by scoring freezing behavior (‘freezing’ serves as memory score). […]

| SMILES | contextual memory (freezing to context 24 hr after training) |
| --- | --- |
| Cn1nc(-c2ccc(C(=O)N3CCCCC3)s2)cc1C(F)(F)F [Compound 177, [5-(1-Methyl-5-trifluoromethyl-1H-pyrazol-3-yl)-thiophen-2-yl]-piperidin-1-yl-methanone] | significantly enhanced contextual memory; also recorded: significantly facilitated freezing to context |
| CN(C)C(=O)c1ccc(-c2cc(C(F)(F)F)n(C)n2)s1 [Compound 162, 5-(1-Methyl-5-trifluoromethyl-1H-pyrazol-3-yl)-thiophene-2-carboxylic acid dimethylamide] | significantly enhanced contextual memory; also recorded: significantly facilitated freezing to context |
